Assay results reported in patent publication US4593047A, “Process for the preparation of 3-trifluoromethyl-and 2,5-dimethyl-4'-hdyroxy-α-ethyl-benzhydrol, and pharmaceutical compositions containing them” (Richter Gedeon Vegyeszeti Cyar RT, priority 1982, dated 1986).

Legend:
enzyme system of liver = conditions: cited from earlier work
[1] = Ethanolic narcosis period as a function of the pretreatment period (Table 2); assay type: in vivo, Hann.-Wistar rats; conditions: 40.0 mg./kg. oral, n=10
Experimental: (§1) The effect of the compounds according to the invention on ethanolic narcosis period was tested on Hann.-Wistar rats of both sexes, each weighing 160 to 180 g. The animals were fasted for 16 hours prior to treatment and tests were performed on groups of 10. The animals were treated with various doses of the test compounds orally. One hour after treatment the rats were administered a […]. dose of ethanol intraperitoneally, and their narcosis period was measured from the elapse of the righting reflex until a spontaneous correction of the body position. The mean value of the narcosis period and the percentage difference related to the control were calculated.
There was examined the effect of a 40.0 mg./kg. dose of the above test compound on the ethanolic narcosis period as a function of the pretreatment-period, following the test procedure described above.

[2] = Ethanolic narcosis period test (Table 1, 1 hour oral pretreatment); assay type: in vivo, Hann.-Wistar rats; conditions: 1 hour before ethanol i.p., n=10, control = 100 ± 7.9
Experimental: as §1, with “calculated. The results are given in Table 1. x±S.E.=mean value±standard error n=number of animals The control group was treated with placebo and a […]. dose of ethanol. Narcosis period of the control: 87.4±6.91 (x±S.E.) min.” for “calculated.”

[3] = Acute toxicity, single oral dose, 14 days observation; assay type: in vivo
Experimental: The acute toxicity of the compound A was determined on Hann.-Wistar rats of both sexes, each weighing 160 to 180 g. in groups of 10. The animals were administered a single 2000 mg./kg. oral dose of the test compound, and then observed for 14 days.

[4] = in vivo; cited from earlier work
[5] = in vivo; cited from earlier work; remark: listed apart in the source
[6] = cited from earlier work

## CCC(O)(c1ccccc1)c1cc(C)ccc1C (stereo not drawn) [2,5-dimethyl-α-ethyl-benzhydrol]
Enzyme system of liver
  Inducing effect on the enzyme system of liver: shows a similar activity

## CCC(O)(c1ccccc1)c1cccc(C(F)(F)F)c1 (stereo not drawn) [3-trifluoromethyl-α-ethyl-benzhydrol]
Enzyme system of liver
  Inducing effect on the enzyme system of liver: has an inducing effect on the enzyme system of liver

## CCC(O)(c1ccc(O)cc1)c1cccc(C(F)(F)F)c1 (stereo not drawn) [A, 3-trifluoromethyl-4'-hydroxy-α-ethyl-benzhydrol]
[1]; pretreatment 0.5 hours, control 87.2 ± 6.23
  Narcosis period, treated: 54.1 ± 3.49
[1]; pretreatment 0.5 hours
  Narcosis period, % difference from the control: -38%
[1]; pretreatment 1.0 hours, control 85.1 ± 4.91
  Narcosis period, treated: 45.1 ± 2.30
[1]; pretreatment 1.0 hours
  Narcosis period, % difference from the control: -47%
[1]; pretreatment 2.0 hours, control 85.5 ± 9.97
  Narcosis period, treated: 29.9 ± 5.08
[1]; pretreatment 2.0 hours
  Narcosis period, % difference from the control: -65%
[1]; pretreatment 3.0 hours, control 83.4 ± 8.46
  Narcosis period, treated: 75.1 ± 4.51
[1]; pretreatment 3.0 hours
  Narcosis period, % difference from the control: -10%
[2]; 40.0 mg./kg. oral
  Ethanolic narcosis period (Control ± S.E. %): 53 ± 5.8%
[2]; 80.0 mg./kg. oral
  Ethanolic narcosis period (Control ± S.E. %): 62 ± 5.1%
[3]; oral, single dose
  Toxicity: toxicity is low
[3]; rat, in vivo, oral, single dose, 14 days observation
  LD50 at 336 h: > 2000 mg/kg
[3]; rat, in vivo, single 2000 mg./kg. oral dose, 14 days observation, read-out: Animals perished
  mortality at 336 h: 40%

## N[C@@H](CS)C(=O)O [L-cysteine, reference compound]
[4]
  Alcoholic intoxication: shortened
  Alcoholic narcosis: shortened
[2]; 500.0 mg./kg. oral
  Ethanolic narcosis period (Control ± S.E. %): 63 ± 4.2%
[2]; 1000.0 mg./kg. oral
  Ethanolic narcosis period (Control ± S.E. %): 66 ± 5.9%

## CC(N)Cc1ccccc1 (stereo not shown) [amphetamine]
[5]
  Motoric incoordination (ataxia): prolong the motoric incoordination (ataxia)
  Narcotizing effect of alcohol: decrease the narcotizing effect of alcohol

## Cn1c(=O)c2c(ncn2C)n(C)c1=O [caffeine]
[5]
  Motoric incoordination (ataxia): prolong the motoric incoordination (ataxia)
  Narcotizing effect of alcohol: decrease the narcotizing effect of alcohol

## CC(N)(Cc1ccc(O)cc1)C(=O)O (stereo not drawn) [α-Methyl-p-tyrosine]
[6]; mice, dose range in which spontaneous locomotor activity is decreased
  Effect on locomotoric hyperactivity: normalizing effect
[6]; same dose range as normalizing effect on hyperactivity
  Spontaneous locomotor activity: decreases the spontaneous locomotor activity
